Like-named read-outs stand apart in the source and are kept apart here.
What was measured:
human CXCR6 receptor [1] = biological target: T1, human CXCR6 receptor (Homo sapiens, UniProt O00574); type: cell-based
SK-HEP-1 hepatoma cells = assay: SK-Hep-1 invasion/migration, live cell transwell assay; type: cell-based, human; settings: for effect on SK-Hep-1 invasion in words: live cell transwell assay
human liver microsomes = assay: Metabolic stability in human liver microsomes; type: in vitro ADME; settings: within 1h
[2] = Stability in mouse plasma; type: in vitro ADME
[3] = Solubility in aqueous buffer; type: physicochemical; settings: pH range 5.0–7.4
[4] = Stability in human plasma; type: in vitro ADME
Plasma protein binding = type: in vitro ADME
[5] = Metabolic stability in mouse liver microsomes; type: in vitro ADME; settings: within 1h
human CXCR6 receptor [6] = biological target: T1, human CXCR6 receptor; assay: Antagonism of CXCL16; type: cell-based; settings: vs ML339
PAMPA permeability = type: in vitro ADME
[7] = Rapid Assessment of Compound Exposure; type: in vivo, mouse
CCR6 human receptor = settings: read-out: IC50 against CCR6; previously reported; cited from earlier work
CXCR4 human receptor = settings: read-out: IC50 against CXCR4; previously reported; cited from earlier work
CXCR5 human receptor = settings: read-out: IC50 against CXCR5; previously reported; cited from earlier work

T1 sequence (O00574 whole entry): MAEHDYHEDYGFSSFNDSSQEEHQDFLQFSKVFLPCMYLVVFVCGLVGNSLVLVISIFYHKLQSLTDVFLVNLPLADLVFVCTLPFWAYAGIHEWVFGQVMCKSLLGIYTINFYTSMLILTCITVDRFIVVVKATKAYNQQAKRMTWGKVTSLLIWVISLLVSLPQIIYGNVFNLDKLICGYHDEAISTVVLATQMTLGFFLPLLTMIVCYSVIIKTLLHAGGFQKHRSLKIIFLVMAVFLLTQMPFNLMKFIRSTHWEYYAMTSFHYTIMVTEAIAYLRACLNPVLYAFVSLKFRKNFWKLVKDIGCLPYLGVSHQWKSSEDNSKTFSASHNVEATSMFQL

## COc1cc(C(=O)N[C@@H]2C[C@H]3CCC[C@@H](C2)N3Cc2ccccc2Cl)cc(OC)c1OC [Compound 59]
Human CXCR6 receptor [1]; vs compound 17
  fold lower activity than compound 17: 48 fold

## O=C(CN1[C@@H]2CCC[C@H]1C[C@H](NC(=O)c1ccccc1)C2)Nc1ccccc1 [Compound 6]
SK-HEP-1 hepatoma cells
  effect on SK-Hep-1 invasion in words: had no effect

## COc1cc(C(=O)N[C@@H]2C[C@H]3CCC[C@@H](C2)N3Cc2nc3c(Cl)cccc3s2)cc(OC)c1OC [Compound 73]
SK-HEP-1 hepatoma cells
  effect on SK-Hep-1 invasion in words: inhibited invasion

## COc1cc(C(=O)N[C@@H]2C[C@H]3CCC[C@@H](C2)N3CC(=O)c2nc3ccccc3s2)cc(OC)c1OC [Compound 72]
Human CXCR6 receptor [1]; carbonyl linkage, comparator not named
  fold loss in activity: 100 fold

## COc1cc(C(=O)N[C@@H]2C[C@H]3CCC[C@@H](C2)N3Cc2nc3c(C(F)(F)F)cccc3s2)cc(OC)c1OC [Compound 81]
Human liver microsomes
  metabolism in human liver microsomes in words: almost completely metabolized
[2]
  stability in mouse plasma in words: excellent stability
Human CXCR6 receptor [1]
  EC50: 0.04 µM
Human CXCR6 receptor [1]; vs ML339
  fold improvement in potency in β-arrestin assay: ≥ 10 fold
[3]
  solubility in words: good solubility
[4]
  stability in human plasma in words: excellent stability
SK-HEP-1 tumor; 30 mg/kg oral, Day 4 to Day 30, P < 0.0005
  SK-HEP-1 tumor growth vs vehicle in words: significantly inhibited
SK-HEP-1 tumor; 60 mg/kg oral, Day 4 to Day 30, P < 0.0002
  SK-HEP-1 tumor growth vs vehicle in words: significantly inhibited
SK-HEP-1 tumor; 30 and 60 mg/kg, 30-day study
  toxicity to mice in words: non-toxic
Plasma protein binding
  plasma protein binding in words: high plasma protein binding
[5]
  metabolism in mouse liver microsomes in words: almost completely metabolized
SK-HEP-1 hepatoma cells; SK-HEP-1, 72 h
  cell viability in words: without loss in cell viability
Human CXCR6 receptor [6]
  fold improvement in potency in cAMP assay: ≥ 10 fold
PAMPA permeability
  PAMPA permeability in words: good PAMPA permeability
[7]; 10 mg/kg oral dose, DMSO: Tw80: H2O (1:1:8)
  exposure in RACE assay in words: good exposure
[7]; mice
  bioavailability in words: good bioavailability

## COc1cc(C(=O)N[C@@H]2C[C@H]3CCC[C@@H](C2)N3CC(=O)Nc2ccccc2Cl)cc(OC)c1OC [Compound 17]
CCR6 human receptor
  IC50: > 80 µM
CXCR4 human receptor
  IC50: > 80 µM
CXCR5 human receptor
  IC50: > 80 µM

From publication PMC8011643 (Bioorganic & medicinal chemistry letters, 2019)
